Key:
[1] = molecular target: Mitogen-activated protein kinase 11 (Homo sapiens) (UniProt Q15759); test: Percentage p38beta activity remaining in the presence of 0.1uM inhibitor
[2] = molecular target: Calcium/calmodulin-dependent protein kinase kinase 1 (Homo sapiens) (UniProt Q8N5S9); test: Percentage CaMKKalpha activity remaining in the presence of 0.1uM inhibitor
[3] = molecular target: Proto-oncogene tyrosine-protein kinase Src (Gallus gallus) (UniProt P00523); test: Percentage Src activity remaining in the presence of 0.1uM inhibitor
[4] = molecular target: Aurora kinase B (Homo sapiens, UniProt Q96GD4); test: Percentage Aurora B activity remaining in the presence of 0.1uM inhibitor
[5] = molecular target: Ribosomal protein S6 kinase alpha-1 (Homo sapiens) (UniProt Q15418); test: Percentage RSK1 activity remaining in the presence of 0.1uM inhibitor
[6] = molecular target: Mitogen-activated protein kinase 1 (Homo sapiens) (UniProt P28482); test: Percentage ERK2 activity remaining in the presence of 0.1uM inhibitor
[7] = molecular target: T1, 3-phosphoinositide-dependent protein kinase 1 (Homo sapiens) (UniProt O15530); test: Percentage PDK1 activity remaining in the presence of 0.1uM inhibitor
T1 sequence (whole entry): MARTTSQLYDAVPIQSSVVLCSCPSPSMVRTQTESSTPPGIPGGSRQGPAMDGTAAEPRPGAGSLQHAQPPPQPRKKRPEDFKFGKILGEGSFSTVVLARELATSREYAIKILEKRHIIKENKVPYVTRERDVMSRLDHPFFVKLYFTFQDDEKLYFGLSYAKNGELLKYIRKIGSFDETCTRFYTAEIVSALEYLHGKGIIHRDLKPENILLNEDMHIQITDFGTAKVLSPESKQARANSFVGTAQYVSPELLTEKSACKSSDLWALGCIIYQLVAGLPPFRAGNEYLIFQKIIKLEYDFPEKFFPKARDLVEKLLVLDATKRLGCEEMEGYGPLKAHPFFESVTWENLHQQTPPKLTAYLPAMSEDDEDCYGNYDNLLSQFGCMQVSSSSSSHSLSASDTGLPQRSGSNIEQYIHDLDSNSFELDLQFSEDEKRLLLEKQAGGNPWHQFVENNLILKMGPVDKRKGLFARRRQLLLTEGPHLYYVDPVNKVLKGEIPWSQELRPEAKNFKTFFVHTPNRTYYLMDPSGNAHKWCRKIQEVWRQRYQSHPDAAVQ

[8] = molecular target: T2, MAP kinase-activated protein kinase 5 (Homo sapiens) (UniProt Q8IW41); test: Percentage PRAK activity remaining in the presence of 0.1uM inhibitor
T2 sequence (whole entry): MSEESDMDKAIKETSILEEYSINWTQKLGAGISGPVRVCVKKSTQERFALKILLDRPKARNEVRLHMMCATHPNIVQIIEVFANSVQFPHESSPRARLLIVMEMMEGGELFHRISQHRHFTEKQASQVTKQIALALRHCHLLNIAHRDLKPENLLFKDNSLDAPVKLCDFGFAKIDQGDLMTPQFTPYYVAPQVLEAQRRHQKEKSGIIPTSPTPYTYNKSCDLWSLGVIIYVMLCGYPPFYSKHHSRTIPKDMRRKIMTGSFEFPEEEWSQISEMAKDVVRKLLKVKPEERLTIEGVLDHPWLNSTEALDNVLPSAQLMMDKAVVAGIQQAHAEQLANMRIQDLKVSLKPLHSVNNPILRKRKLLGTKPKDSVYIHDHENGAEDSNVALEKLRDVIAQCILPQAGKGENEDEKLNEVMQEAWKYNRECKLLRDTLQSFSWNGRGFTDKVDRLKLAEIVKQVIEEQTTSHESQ

[9] = molecular target: Mitogen-activated protein kinase 8 (Homo sapiens, UniProt P45983); test: Percentage JNK1 activity remaining in the presence of 0.1uM inhibitor
[10] = molecular target: Calcium/calmodulin-dependent protein kinase type 1 (Homo sapiens) (UniProt Q14012); test: Percentage CaMK1 activity remaining in the presence of 0.1uM inhibitor
[11] = molecular target: RAC-alpha serine/threonine-protein kinase (Homo sapiens) (UniProt P31749); test: Percentage PKBalpha activity remaining in the presence of 0.1uM inhibitor
[12] = molecular target: Dual specificity tyrosine-phosphorylation-regulated kinase 1A (Homo sapiens) (UniProt Q13627); test: Percentage DYRK1A activity remaining in the presence of 0.1uM inhibitor
[13] = molecular target: MAP kinase-interacting serine/threonine-protein kinase 1 (Homo sapiens) (UniProt Q9BUB5); test: Percentage MNK1 activity remaining in the presence of 0.1uM inhibitor
[14] = molecular target: Tyrosine-protein kinase CSK (Homo sapiens, UniProt P41240); test: Percentage CSK activity remaining in the presence of 0.1uM inhibitor
[15] = molecular target: T3, Inhibitor of nuclear factor kappa-B kinase subunit beta (Homo sapiens) (UniProt O14920); test: Percentage IKK-beta activity remaining in the presence of 0.1uM inhibitor
T3 sequence (whole entry): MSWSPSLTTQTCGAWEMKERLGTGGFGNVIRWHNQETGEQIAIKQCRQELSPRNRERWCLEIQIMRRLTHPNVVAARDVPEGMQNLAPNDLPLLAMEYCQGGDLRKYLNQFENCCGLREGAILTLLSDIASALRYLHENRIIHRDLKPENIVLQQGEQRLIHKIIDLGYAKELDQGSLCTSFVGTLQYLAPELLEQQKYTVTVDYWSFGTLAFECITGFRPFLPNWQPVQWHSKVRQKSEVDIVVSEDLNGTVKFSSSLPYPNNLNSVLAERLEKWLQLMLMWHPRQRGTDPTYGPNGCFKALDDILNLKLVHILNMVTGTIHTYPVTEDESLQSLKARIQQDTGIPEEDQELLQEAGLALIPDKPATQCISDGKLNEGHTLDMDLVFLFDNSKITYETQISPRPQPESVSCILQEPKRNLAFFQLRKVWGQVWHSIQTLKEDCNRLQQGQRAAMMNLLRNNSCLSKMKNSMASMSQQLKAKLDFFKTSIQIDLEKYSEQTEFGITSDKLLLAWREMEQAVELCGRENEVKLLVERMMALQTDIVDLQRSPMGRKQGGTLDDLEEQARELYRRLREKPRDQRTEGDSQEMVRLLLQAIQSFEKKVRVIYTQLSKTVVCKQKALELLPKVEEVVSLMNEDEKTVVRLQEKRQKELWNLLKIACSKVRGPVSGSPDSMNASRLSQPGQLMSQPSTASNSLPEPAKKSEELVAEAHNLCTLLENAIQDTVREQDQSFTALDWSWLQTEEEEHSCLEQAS

[16] = molecular target: Serine/threonine-protein kinase PAK 6 (Homo sapiens) (UniProt Q9NQU5); test: Percentage PAK6 activity remaining in the presence of 0.1uM inhibitor
[17] = molecular target: Mitogen-activated protein kinase 3 (Homo sapiens) (UniProt P27361); test: Percentage ERK1 activity remaining in the presence of 0.1uM inhibitor
[18] = molecular target: MAP kinase-activated protein kinase 3 (Homo sapiens) (UniProt Q16644); test: Percentage MAPKAPK3 activity remaining in the presence of 0.1uM inhibitor
[19] = molecular target: Cyclin-dependent kinase 2/cyclin A (Homo sapiens) (UniProt P24941+P20248+P78396); test: Percentage CDK2-cyclinA activity remaining in the presence of 0.1uM inhibitor; type: protein-complex assay

Chain of Mitogen-activated protein kinase 3 (Homo sapiens) (P27361 whole entry): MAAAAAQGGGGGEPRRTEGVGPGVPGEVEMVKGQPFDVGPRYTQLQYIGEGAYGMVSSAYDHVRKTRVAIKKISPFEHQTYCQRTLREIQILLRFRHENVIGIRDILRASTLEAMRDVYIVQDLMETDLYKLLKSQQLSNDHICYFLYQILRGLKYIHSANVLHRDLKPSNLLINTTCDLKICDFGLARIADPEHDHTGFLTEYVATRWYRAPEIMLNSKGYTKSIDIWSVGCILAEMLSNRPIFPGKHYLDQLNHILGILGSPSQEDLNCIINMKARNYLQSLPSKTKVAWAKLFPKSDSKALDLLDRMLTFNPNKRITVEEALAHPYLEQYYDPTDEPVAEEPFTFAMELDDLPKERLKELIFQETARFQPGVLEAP
Chain of Aurora kinase B (Q96GD4 whole entry): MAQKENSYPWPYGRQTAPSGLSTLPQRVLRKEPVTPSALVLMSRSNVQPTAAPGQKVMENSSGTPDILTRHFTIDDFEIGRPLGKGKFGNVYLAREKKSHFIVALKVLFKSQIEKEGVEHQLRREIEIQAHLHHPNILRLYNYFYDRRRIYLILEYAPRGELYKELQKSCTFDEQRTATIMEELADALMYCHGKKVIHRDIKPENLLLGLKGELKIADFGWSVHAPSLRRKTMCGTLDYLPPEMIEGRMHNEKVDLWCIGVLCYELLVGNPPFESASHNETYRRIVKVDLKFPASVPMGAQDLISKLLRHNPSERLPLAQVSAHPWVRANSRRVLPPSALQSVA
Chain of Calcium/calmodulin-dependent protein kinase type 1 (Homo sapiens) (Q14012 whole entry, looked up): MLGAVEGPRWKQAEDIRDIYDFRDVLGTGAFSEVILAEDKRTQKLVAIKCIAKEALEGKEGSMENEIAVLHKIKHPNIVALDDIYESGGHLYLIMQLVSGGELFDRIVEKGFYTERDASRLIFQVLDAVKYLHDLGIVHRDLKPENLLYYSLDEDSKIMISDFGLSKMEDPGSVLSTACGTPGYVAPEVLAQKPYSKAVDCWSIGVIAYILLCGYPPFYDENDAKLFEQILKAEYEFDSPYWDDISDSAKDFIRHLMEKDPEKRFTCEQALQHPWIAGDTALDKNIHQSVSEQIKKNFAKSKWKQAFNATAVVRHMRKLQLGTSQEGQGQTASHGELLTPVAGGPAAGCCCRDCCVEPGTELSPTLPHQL
Chain of MAP kinase-activated protein kinase 3 (Homo sapiens) (Q16644 whole entry, looked up): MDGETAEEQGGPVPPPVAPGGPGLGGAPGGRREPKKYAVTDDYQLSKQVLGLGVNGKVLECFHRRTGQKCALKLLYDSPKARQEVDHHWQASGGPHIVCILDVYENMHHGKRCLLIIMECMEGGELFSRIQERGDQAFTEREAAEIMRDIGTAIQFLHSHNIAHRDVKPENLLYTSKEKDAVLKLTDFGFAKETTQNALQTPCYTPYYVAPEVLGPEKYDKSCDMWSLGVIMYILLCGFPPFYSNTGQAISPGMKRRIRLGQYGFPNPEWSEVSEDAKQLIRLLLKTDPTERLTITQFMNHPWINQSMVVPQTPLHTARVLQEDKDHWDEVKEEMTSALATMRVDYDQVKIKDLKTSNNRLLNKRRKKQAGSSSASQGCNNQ
Chain of Mitogen-activated protein kinase 11 (Homo sapiens) (Q15759 whole entry): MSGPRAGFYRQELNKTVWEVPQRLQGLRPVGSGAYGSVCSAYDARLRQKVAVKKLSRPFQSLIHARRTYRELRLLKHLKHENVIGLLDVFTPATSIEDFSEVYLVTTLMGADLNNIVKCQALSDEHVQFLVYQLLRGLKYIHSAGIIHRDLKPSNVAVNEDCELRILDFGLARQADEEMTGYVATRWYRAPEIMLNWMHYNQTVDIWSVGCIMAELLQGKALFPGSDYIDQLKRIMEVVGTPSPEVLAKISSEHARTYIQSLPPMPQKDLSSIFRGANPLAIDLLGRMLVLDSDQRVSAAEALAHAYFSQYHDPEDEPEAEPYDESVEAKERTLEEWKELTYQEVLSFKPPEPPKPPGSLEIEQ
Chain of Mitogen-activated protein kinase 1 (Homo sapiens) (P28482 whole entry): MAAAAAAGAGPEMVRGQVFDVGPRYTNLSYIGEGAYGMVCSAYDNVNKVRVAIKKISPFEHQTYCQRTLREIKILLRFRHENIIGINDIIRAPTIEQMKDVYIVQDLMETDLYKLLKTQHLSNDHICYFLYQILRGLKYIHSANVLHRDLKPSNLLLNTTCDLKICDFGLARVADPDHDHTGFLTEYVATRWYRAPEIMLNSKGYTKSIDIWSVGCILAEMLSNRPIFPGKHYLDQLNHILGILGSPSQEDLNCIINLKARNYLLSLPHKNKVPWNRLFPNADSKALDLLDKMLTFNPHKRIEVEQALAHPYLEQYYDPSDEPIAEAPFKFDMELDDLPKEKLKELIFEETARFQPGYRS
Chain of Calcium/calmodulin-dependent protein kinase kinase 1 (Homo sapiens) (Q8N5S9 whole entry, looked up): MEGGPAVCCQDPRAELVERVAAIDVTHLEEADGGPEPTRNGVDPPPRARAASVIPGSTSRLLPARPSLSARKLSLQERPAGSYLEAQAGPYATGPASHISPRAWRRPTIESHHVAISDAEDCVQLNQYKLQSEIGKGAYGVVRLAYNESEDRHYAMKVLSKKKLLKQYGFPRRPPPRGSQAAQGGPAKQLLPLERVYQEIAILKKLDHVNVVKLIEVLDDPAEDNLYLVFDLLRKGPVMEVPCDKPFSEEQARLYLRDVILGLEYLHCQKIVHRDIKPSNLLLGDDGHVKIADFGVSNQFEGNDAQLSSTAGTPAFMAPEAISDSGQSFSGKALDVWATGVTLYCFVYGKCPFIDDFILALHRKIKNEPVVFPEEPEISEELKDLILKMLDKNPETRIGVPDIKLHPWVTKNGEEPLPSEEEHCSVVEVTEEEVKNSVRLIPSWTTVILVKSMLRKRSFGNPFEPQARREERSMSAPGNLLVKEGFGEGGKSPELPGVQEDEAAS
Chain of RAC-alpha serine/threonine-protein kinase (Homo sapiens) (P31749 whole entry): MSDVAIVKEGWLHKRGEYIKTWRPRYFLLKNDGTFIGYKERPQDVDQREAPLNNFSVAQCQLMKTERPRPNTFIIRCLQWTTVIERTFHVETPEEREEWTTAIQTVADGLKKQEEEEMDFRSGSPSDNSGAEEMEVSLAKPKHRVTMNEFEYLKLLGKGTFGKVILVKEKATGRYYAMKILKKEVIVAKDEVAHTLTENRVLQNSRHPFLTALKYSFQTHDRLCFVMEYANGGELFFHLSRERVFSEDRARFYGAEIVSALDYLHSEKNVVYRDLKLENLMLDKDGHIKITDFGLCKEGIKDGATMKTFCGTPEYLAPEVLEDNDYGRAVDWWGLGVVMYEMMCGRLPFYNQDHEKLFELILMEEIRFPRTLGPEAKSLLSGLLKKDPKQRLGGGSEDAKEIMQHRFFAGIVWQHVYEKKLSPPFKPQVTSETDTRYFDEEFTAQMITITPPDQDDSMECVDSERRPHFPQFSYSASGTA
Chain of Serine/threonine-protein kinase PAK 6 (Homo sapiens) (Q9NQU5 whole entry, looked up): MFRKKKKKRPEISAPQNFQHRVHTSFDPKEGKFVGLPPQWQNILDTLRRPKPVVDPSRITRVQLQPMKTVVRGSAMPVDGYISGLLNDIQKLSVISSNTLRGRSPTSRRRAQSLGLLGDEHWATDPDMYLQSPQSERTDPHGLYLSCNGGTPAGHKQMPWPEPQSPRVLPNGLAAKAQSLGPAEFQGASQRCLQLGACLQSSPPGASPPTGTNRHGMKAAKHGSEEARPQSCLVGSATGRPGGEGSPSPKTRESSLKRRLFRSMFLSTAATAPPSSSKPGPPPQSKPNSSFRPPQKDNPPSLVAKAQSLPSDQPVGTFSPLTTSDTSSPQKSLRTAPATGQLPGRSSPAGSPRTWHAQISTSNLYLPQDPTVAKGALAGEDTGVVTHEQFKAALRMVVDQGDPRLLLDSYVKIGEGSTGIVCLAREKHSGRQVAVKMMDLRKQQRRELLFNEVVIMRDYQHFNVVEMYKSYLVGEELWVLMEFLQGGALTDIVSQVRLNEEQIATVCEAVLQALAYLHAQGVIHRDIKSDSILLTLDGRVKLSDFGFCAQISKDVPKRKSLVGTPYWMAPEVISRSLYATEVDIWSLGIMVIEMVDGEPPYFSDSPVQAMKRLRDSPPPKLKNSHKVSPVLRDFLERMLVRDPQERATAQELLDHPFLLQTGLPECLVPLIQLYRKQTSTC
Chain of Tyrosine-protein kinase CSK (P41240 2-450 limits assumed): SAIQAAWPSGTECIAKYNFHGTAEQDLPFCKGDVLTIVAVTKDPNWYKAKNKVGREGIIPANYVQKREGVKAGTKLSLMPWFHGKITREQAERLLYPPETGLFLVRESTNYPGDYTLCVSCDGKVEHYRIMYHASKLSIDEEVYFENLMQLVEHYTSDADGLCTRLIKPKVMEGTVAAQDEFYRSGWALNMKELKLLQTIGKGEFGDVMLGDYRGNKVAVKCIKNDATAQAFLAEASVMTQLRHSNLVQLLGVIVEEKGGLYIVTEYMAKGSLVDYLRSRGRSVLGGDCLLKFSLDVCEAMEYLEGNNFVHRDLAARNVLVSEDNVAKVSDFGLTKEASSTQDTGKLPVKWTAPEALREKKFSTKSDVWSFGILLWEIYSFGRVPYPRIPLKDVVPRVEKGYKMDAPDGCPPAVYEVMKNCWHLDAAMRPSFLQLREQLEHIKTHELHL
Chain of Mitogen-activated protein kinase 8 (P45983 whole entry): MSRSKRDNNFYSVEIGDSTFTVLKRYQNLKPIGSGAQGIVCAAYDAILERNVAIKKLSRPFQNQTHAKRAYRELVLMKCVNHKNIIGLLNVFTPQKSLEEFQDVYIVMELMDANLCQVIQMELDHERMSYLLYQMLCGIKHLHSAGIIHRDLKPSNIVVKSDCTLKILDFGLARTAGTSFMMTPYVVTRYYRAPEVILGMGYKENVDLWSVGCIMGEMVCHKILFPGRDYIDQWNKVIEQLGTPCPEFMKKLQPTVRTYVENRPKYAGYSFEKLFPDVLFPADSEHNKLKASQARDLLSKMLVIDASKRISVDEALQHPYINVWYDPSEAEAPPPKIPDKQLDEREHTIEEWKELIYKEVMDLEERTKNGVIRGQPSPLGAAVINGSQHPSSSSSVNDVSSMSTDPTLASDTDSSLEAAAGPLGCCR

CC(C)CCN1c2nc(Nc3cc(F)c(O)c(F)c3)ncc2N(C)C(=O)C1C (stereo unspecified)
Activity [1]: 100% | Activity [2]: 92% | Activity [3]: 96% | Activity ([4]; filed as antagonist): 22% | Activity ([5]; filed as antagonist): 1% | Activity [6]: 85% | Activity [7]: 94% | Activity [8]: 89% | Activity [9]: 88% | Activity [10]: 103% | Activity [11]: 98% | Activity [12]: 96% | Activity [13]: 87% | Activity [14]: 99% | Activity [15]: 106% | Activity [16]: 102% | Activity [17]: 115% | Activity [18]: 108% | Activity [19]: 84%

O=C(NCCCNc1nc(Nc2cccc(NC(=O)N3CCCC3)c2)ncc1I)c1cccs1
Activity [1]: 71% | Activity [2]: 69% | Activity [3]: 77% | Activity ([4]; filed as antagonist): 3% | Activity [5]: 55% | Activity [6]: 71% | Activity ([7]; filed as antagonist): 5% | Activity [8]: 83% | Activity [9]: 85% | Activity [10]: 71% | Activity [11]: 90% | Activity [12]: 83% | Activity ([13]; filed as antagonist): 37% | Activity [14]: 101% | Activity [15]: 93% | Activity [16]: 85% | Activity [17]: 66% | Activity [18]: 102% | Activity ([19]; filed as antagonist): 10%

Cc1n[nH]c2ccc(-c3cncc(OC[C@@H](N)Cc4c[nH]c5ccccc45)c3)cc12
Activity [1]: 105% | Activity [2]: 117% | Activity [3]: 86% | Activity [4]: 80% | Activity ([5]; filed as antagonist): 32% | Activity [6]: 64% | Activity [7]: 79% | Activity [8]: 107% | Activity [9]: 90% | Activity [10]: 77% | Activity ([11]; filed as antagonist): 3% | Activity ([12]; filed as antagonist): 7% | Activity [13]: 109% | Activity [14]: 93% | Activity [15]: 89% | Activity [16]: 87% | Activity [17]: 59% | Activity [18]: 96%

Cn1c2ccccc2c2c3c(c4c5ccccc5n(CCC#N)c4c21)CNC3=O
Activity [1]: 100% | Activity ([2]; filed as antagonist): 27% | Activity [3]: 65% | Activity ([4]; filed as antagonist): 17% | Activity ([5]; filed as antagonist): 6% | Activity ([6]; filed as antagonist): 41% | Activity ([7]; filed as antagonist): 11% | Activity [8]: 76% | Activity [9]: 69% | Activity [10]: 98% | Activity [11]: 96% | Activity ([12]; filed as antagonist): 30% | Activity [13]: 67% | Activity [14]: 75% | Activity [15]: 76% | Activity ([16]; filed as antagonist): 6% | Activity ([17]; filed as antagonist): 44% | Activity [18]: 95% | Activity ([19]; filed as antagonist): 8%

CN(C)C[C@@H]1CCn2cc(c3ccccc32)C2=C(C(=O)NC2=O)c2cn(c3ccccc23)CCO1
Activity [1]: 109% | Activity [2]: 97% | Activity [3]: 97% | Activity [4]: 65% | Activity ([5]; filed as antagonist): 10% | Activity [6]: 94% | Activity ([7]; filed as antagonist): 25% | Activity [8]: 82% | Activity [9]: 87% | Activity [11]: 90% | Activity [12]: 74% | Activity [13]: 94% | Activity [14]: 78% | Activity [15]: 86% | Activity [16]: 81% | Activity [17]: 84% | Activity [18]: 90% | Activity [19]: 68%

CC(C)[C@H](CO)Nc1nc(Nc2cccc(Cl)c2)c2ncn(C(C)C)c2n1 [PURVALANOLA]
Activity [1]: 90% | Activity [2]: 76% | Activity ([3]; filed as antagonist): 14% | Activity [4]: 89% | Activity [5]: 74% | Activity [6]: 79% | Activity [7]: 79% | Activity [8]: 91% | Activity [9]: 100% | Activity [10]: 99% | Activity [11]: 95% | Activity [12]: 88% | Activity [13]: 92% | Activity [14]: 82% | Activity [15]: 89% | Activity [16]: 67% | Activity [17]: 95% | Activity [18]: 88% | Activity ([19]; filed as antagonist): 9%

Cn1cc(C2=C(c3cn(CCCSC(=N)N)c4ccccc34)C(=O)NC2=O)c2ccccc21
Activity [1]: 99% | Activity [2]: 104% | Activity [3]: 91% | Activity [4]: 80% | Activity ([5]; filed as antagonist): 11% | Activity [6]: 92% | Activity [7]: 62% | Activity [8]: 80% | Activity [9]: 93% | Activity [10]: 91% | Activity [11]: 52% | Activity ([12]; filed as antagonist): 31% | Activity [13]: 95% | Activity [14]: 77% | Activity [15]: 91% | Activity [16]: 76% | Activity [17]: 88% | Activity [18]: 90% | Activity ([19]; filed as antagonist): 3%
